Experimental data reported in paper PMC10535741, “Styrylpyridinium Derivatives for Fluorescent Cell Imaging” (Pharmaceuticals, 2023).

Legend:
[1] = UV/Vis absorption spectra in DMSO; assay type: physicochemical; details: 0.33 mM for 6a,b,d,f,g, 5 mM for 6c,e
Experimental: The resonance structures of compounds 6d,e (Figure 2a) show a possibly intramolecular charge transfer between the julolidine moiety and the pyridinium unit. The normalised fluorescence spectra of the tested compounds 6a–e and 7a,b in DMSO solution (Figure 2c) and the fluorescence spectra of compound 6e in various media (Figure 2d) were measured using a spectrophotometer multiplate reader (Infinite M1000). The UV/Vis spectra in DMSO solution of compounds 6a–g (Figure 2b) were reordered with a UV/Vis spectrophotometer, and the fluorescence spectra of compound 6e in EtOH–glycerol mixtures (Figure 2e) were collected with a Spectrofluorometer FS5.
The spectral properties (absorption and fluorescence maximum in DMSO solution) of compounds 6a–e and 7a,b, UV spectral data (extinction coefficient (log ε) and absorption maximum), values of Stokes’ shift, and fluorescence quantum yield are presented in Table 3.

[2] = in vitro; assay type: cell-based, mouse; details: mouse
Text: (§1) For selected compounds, 6a–6f, we performed a determination of the cytotoxicity in a wider variety of cancer and non-cancerous cell lines (see Table S2, Supplementary Materials) in order to learn the characteristic features of selectivity or the similarity of biological properties.
(§2) The HT-1080 (human connective tissue fibrosarcoma, ATCC® CCL-121™), MH-22A (mouse hepatocarcinoma, ECACC Cat. No. 96121721), A-549 (human lung carcinoma, ATCC® CCL-185™), NIH3T3 (Swiss Albino mouse embryo fibroblast, ECACC Cat. No. 93061524), Hek293 (human embryonic kidney, ATCC® CRL-1573™), BHK-21 (Syrian hamster kidney, ATCC® CCL-10™), A-431 (human epidermoid carcinoma, ATCC® CRL-1555™), Saos-2 (human osteosarcoma, ATCC® HTB-85™), HeLa (human epitheloid cervix carcinoma, ATCC® CCL-2™), U937 (human myeloid leukaemia, ATCC® CRL-1593.2™), C6 (rat glioma, ATCC® CCL-107™), and B16-F10 (murine melanoma, ATCC® CRL-6475™) cell lines were obtained from the American Type Culture Collection (ATCC) and European Collection of Authenticated Cell Cultures (ECACC).
(§3) HT-1080, MH-22A, A-549, NIH3T3, BHK-21, A-431, HeLa, and B16-F10 cells were cultured in Dulbecco’s Modified Eagle’s Medium (DMEM) with 2 mM glutamine and 10% foetal bovine serum (FBS). Hek293 cells were cultured in Eagle’s Minimum Essential Medium with 10% foetal bovine serum. U937 cells were cultured in RPMI-1640 Medium with 2 mM glutamine and 10% foetal bovine serum. C6 cells were cultured in Ham’s F12 Medium with 2 mM glutamine and 10% foetal bovine serum. Saos-2 cells were cultured in McCoy’s 5a Medium with 2 mM glutamine and 10% foetal bovine serum. The cells were incubated at 37 °C with 5% CO2, 95% air, and complete humidity. Once ~90% confluence was reached, they were detached using 0.05% trypsin/EDTA and counted. The cells were plated at optimally determined densities for the logarithmic phase of growth. These cells were then suspended at a concentration of 4000 cells/well for HT-1080, MH-22A, A-549, NIH3T3, BHK-21, A-431, HeLa, B16-F10, Hek293, and Saos-2 cells and a concentration of 9000 cells/well for U937, C6, Hek293, and GM08402 cells and added onto a 96-well plate. For background absorption, some wells remained cell free, i.e., as a blank control. Cells were incubated for 72 h at 37 °C and 5% CO2 where they were exposed to a media containing serial dilutions of the investigated compounds (n = 3). Cell viability was measured using the 3-(4,5-dimethylthiazol-2-yl)-2,5-diphenyl-tetrazolium bromide (MTT) assay. In brief, after incubating with compounds, the culture medium was removed and fresh medium with 0.2 mg/mL MTT was added to each well of the plate. After incubation (3 h, 37 °C, 5% CO2), the medium with MTT solution was removed and replaced with 200 µL DMSO and 25 µL Sorenson’s glycine buffer (glycine 0.1 M, NaCl 0.1 M, pH: 10.5 with 0.1 M NaOH). The plate was shaken for 15 min at room temperature and the optical density (OD) of the wells was determined using a multichannel spectrophotometer (Thermo Scientific Multiskan EX) at 540 nm. The quantity of the control cells was taken in calculations as 100%. The IC50 value was calculated using the program Graph Pad Prism® 3.0.
(§4) The HT-1080 (human connective tissue fibrosarcoma, ATCC® CCL-121™), MH-22A (mouse hepatocarcinoma, ECACC Cat.No. 96121721), A-549 (human lung carcinoma, ATCC® CCL-185™), NIH 3T3 (mouse Swiss Albino embryo fibroblast, ECACC Cat.No. 93061524), Hek293 (human embryonic kidney, ATCC® CRL-1573™), BHK-21 (hamster Syrian kidney, ATCC® CCL-10™), A-431 (human epidermoid carcinoma, ATCC® CRL-1555™), Saos-2 (human oste osarcoma, ATCC® HTB-85™) HeLa (human epitheloid cervix carcinoma, ATCC® CCL-2™), U937 (human myeloid leukaemia, ATCC® CRL-1593.2™), C6 (rat glioma, ATCC® CCL-107™), B16-F10 (murine melanoma, ATCC® CRL-6475™) cell lines were obtained from American Type Culture Collection (ATCC) and European Collection of Authenticated Cell Cultures […]
(§5) Table S2. […]

[3] = MTT cytotoxicity assay, BHK-21; assay type: cell-based, Syrian hamster; details: Syrian hamster
Text: as §1, §2, §3, §4, §5

[4] = non-cancerous cell line, MTT, 72 h, read-out: Cytotoxicity IC50 NIH3T3

Row | Structure (SMILES) | abs. max., λ, nm [1] | log ε [1] | IC50 at 72 h [2, 4] | IC50 at 72 h [3] | IC50 at 72 h [2] | IC50 at 72 h ([3]; non-cancerous cell line, MTT, 72 h, read-out: Cytotoxicity IC50 BHK-21)
1 | CCCCCCCCCCCCCCCC[n+]1ccc(C=CC=Cc2cc3c4c(c2)CCCN4CCC3)cc1.[Br-] [Compound 6e, 1-hexadecyl-4-(4-(2,3,6,7-tetrahydro-1H,5H-pyrido[3,2,1-ij]quinolin-9-yl)buta-1,3-dien-1-yl)pyridin-1-ium bromide] | 520 nm | 4.02 | 3.2 µg/mL | 2.7 µg/mL | – | –
2 | CCCCCCCCCCCC[n+]1ccc(C=Cc2cc3c4c(c2)CCCN4CCC3)cc1.[Br-] [Compound 6d, 1-dodecyl-4-(2-(2,3,6,7-tetrahydro-1H,5H-pyrido[3,2,1-ij]quinolin-9-yl)vinyl)pyridin-1-ium bromide] | – | – | 0.056 µg/mL | 0.082 µg/mL | – | –
3 | CCCCCCCCCCCCCCCC[n+]1ccc(C=Cc2cc(OC)c(OC)c(OC)c2)cc1.[Br-] [Compound 6b] | 385 nm | 5.23 | – | – | – | –
4 | CCCCCCCCCCCCCCCC[n+]1ccc(C=CC=Cc2ccc(OC)cc2)cc1.[Br-] [Compound 6c, 1-hexadecyl-4-(4-(4-methoxyphenyl)buta-1,3-dien-1-yl)pyridin-1-ium bromide] | 408 nm | 4.26 | – | 0.35 µg/mL | 0.24 µg/mL | –
5 | CCCCCCCCCCCC[n+]1ccc(C=Cc2cc(OC)c(OC)c(OC)c2)cc1.[Br-] [Compound 6a, 4-(3,4,5-trimethoxystyryl)-N-dodecylpyridinium bromide] | 384 nm | 5.46 | 1.23 µg/mL | – | – | 1.01 µg/mL
